Measurements published in publication PMC5218480 (PLoS ONE, 2017).

Test system: MV-4-11 cells
Assay: Gene expression microarray analysis (Affymetrix PrimeView) and GSEA
Type: cell-based, human
Design: RFU PODN (11730768_x_at) / Fold change /veh PODN (11730768_x_at) / RFU LINC00158 (11744669_a_at) / Fold change /veh LINC00158 (11744669_a_at) / RFU DUSP10 (11751237_a_at) / Fold change /veh DUSP10 (11751237_a_at) / RFU ID3 (11757404_x_at) / Fold change /veh ID3 (11757404_x_at) / RFU PLEKHG5 (11737974_s_at) / Fold change /veh PLEKHG5 (11737974_s_at) / RFU LRRC4B (11730491_at) / Fold change /veh LRRC4B (11730491_at) / RFU GIMAP4 (11747438_a_at) / Fold change /veh GIMAP4 (11747438_a_at) / RFU KRT8 (11758183_x_at) / Fold change /veh KRT8 (11758183_x_at) / RFU CNN1 (11734310_a_at) / Fold change /veh CNN1 (11734310_a_at) / RFU VPS37D (11726825_at) / Fold change /veh VPS37D (11726825_at) / RFU C10orf10 (11716522_x_at) / Fold change /veh C10orf10 (11716522_x_at) / RFU KIR2DL2 /// KIR2DL4 /// KIR2DL5A /// KIR2DL5B /// KIR2DS1 /// KIR2DS2 /// KIR2DS3 /// KIR2DS4 /// KIR3DL3 /// KIR3DL3 /// KIR3DS1 (11738374_at) / Fold change /veh KIR2DL2 /// KIR2DL4 /// KIR2DL5A /// KIR2DL5B /// KIR2DS1 /// KIR2DS2 /// KIR2DS3 /// KIR2DS4 /// KIR3DL3 /// KIR3DL3 /// KIR3DS1 (11738374_at) / RFU C1QL1 (11718748_at) / Fold change /veh C1QL1 (11718748_at) / RFU TMPRSS4 (11747572_a_at) / Fold change /veh TMPRSS4 (11747572_a_at) / RFU HAMP (11756126_x_at) / Fold change /veh HAMP (11756126_x_at) / RFU RNFT2 (11725882_a_at) / Fold change /veh RNFT2 (11725882_a_at) / RFU NR4A2 (11747474_a_at) / Fold change /veh NR4A2 (11747474_a_at) / RFU ABCC12 (11746883_a_at) / Fold change /veh ABCC12 (11746883_a_at) / RFU TMEM136 (11760407_x_at) / Fold change /veh TMEM136 (11760407_x_at) / RFU CLDN22 /// WWC2 (11732394_at) / Fold change /veh CLDN22 /// WWC2 (11732394_at) / RFU HLA-DPB1 (11760878_x_at) / Fold change /veh HLA-DPB1 (11760878_x_at) / RFU SPINT1 (11716480_a_at) / Fold change /veh SPINT1 (11716480_a_at) / RFU GAP43 (11754022_s_at) / Fold change /veh GAP43 (11754022_s_at) / RFU A4GNT (11735810_at) / Fold change /veh A4GNT (11735810_at) / RFU PRB3 (11715151_x_at) / Fold change /veh PRB3 (11715151_x_at) / RFU TUBB4B (11761932_at) / Fold change /veh TUBB4B (11761932_at) / RFU CAPN14 (11732068_a_at) / Fold change /veh CAPN14 (11732068_a_at) / RFU TMCC2 (11721928_a_at) / Fold change /veh TMCC2 (11721928_a_at) / RFU IRGQ (11745062_a_at) / Fold change /veh IRGQ (11745062_a_at) / RFU FAM174B (11720279_a_at) / Fold change /veh FAM174B (11720279_a_at) / RFU TMPRSS4 (11748680_a_at) / Fold change /veh TMPRSS4 (11748680_a_at) / RFU FAM212B (11763350_a_at) / Fold change /veh FAM212B (11763350_a_at) / RFU PLEKHG5 (11743358_a_at) / Fold change /veh PLEKHG5 (11743358_a_at) / RFU ZSCAN30 (11745921_a_at) / Fold change /veh ZSCAN30 (11745921_a_at) / RFU CMKLR1 (11741424_a_at) / Fold change /veh CMKLR1 (11741424_a_at) / RFU LOC101060620 /// MAPK8IP1 (11723275_at) / Fold change /veh LOC101060620 /// MAPK8IP1 (11723275_at) / RFU SPTSSB (11747773_x_at) / Fold change /veh SPTSSB (11747773_x_at) / RFU PRSS12 (11739890_at) / Fold change /veh PRSS12 (11739890_at) / RFU BIN1 (11741810_x_at) / Fold change /veh BIN1 (11741810_x_at) / RFU WNT11 (11732464_a_at) / Fold change /veh WNT11 (11732464_a_at) / RFU C10orf10 (11716521_a_at) / Fold change /veh C10orf10 (11716521_a_at) / RFU C5orf56 (11738089_at) / Fold change /veh C5orf56 (11738089_at) / RFU CYB561 (11721691_x_at) / Fold change /veh CYB561 (11721691_x_at) / RFU ANKRD19P (11752326_a_at) / Fold change /veh ANKRD19P (11752326_a_at) / RFU OR2T12 /// OR2T33 /// OR2T8 (11738714_s_at) / Fold change /veh OR2T12 /// OR2T33 /// OR2T8 (11738714_s_at) / RFU VCAN (11748164_a_at) / Fold change /veh VCAN (11748164_a_at) / RFU JSRP1 (11732532_at) / Fold change /veh JSRP1 (11732532_at) / RFU KRTAP10-11 (11738290_x_at) / Fold change /veh KRTAP10-11 (11738290_x_at) / RFU MYO3A (11730013_a_at) / Fold change /veh MYO3A (11730013_a_at) / RFU EBF3 (11725865_a_at) / Fold change /veh EBF3 (11725865_a_at) / RFU CAMK2N1 (11719241_x_at) / Fold change /veh CAMK2N1 (11719241_x_at) / RFU C5orf56 (11738088_a_at) / Fold change /veh C5orf56 (11738088_a_at) / RFU OLFML3 (11715873_a_at) / Fold change /veh OLFML3 (11715873_a_at) / RFU LOC100653217 /// NTM (11731650_a_at) / Fold change /veh LOC100653217 /// NTM (11731650_a_at) / RFU MAPK11 (11762145_a_at) / Fold change /veh MAPK11 (11762145_a_at) / RFU FIZ1 (11724087_x_at) / Fold change /veh FIZ1 (11724087_x_at) / RFU OASL (11726364_x_at) / Fold change /veh OASL (11726364_x_at) / RFU SOX15 (11748057_x_at) / Fold change /veh SOX15 (11748057_x_at) / RFU CD79A (11719716_a_at) / Fold change /veh CD79A (11719716_a_at) / RFU HIST1H1D (11736915_at) / Fold change /veh HIST1H1D (11736915_at) / RFU CASKIN2 (11723855_a_at) / Fold change /veh CASKIN2 (11723855_a_at) / RFU LOC730098 (11760151_x_at) / Fold change /veh LOC730098 (11760151_x_at) / RFU OR4N2 (11742367_at) / Fold change /veh OR4N2 (11742367_at) / RFU PRRT2 (11749266_a_at) / Fold change /veh PRRT2 (11749266_a_at) / RFU SNX32 (11753110_a_at) / Fold change /veh SNX32 (11753110_a_at) / RFU CDHR5 (11726645_a_at) / Fold change /veh CDHR5 (11726645_a_at) / RFU RCAN1 (11760418_a_at) / Fold change /veh RCAN1 (11760418_a_at) / RFU FAM167A (11723789_a_at) / Fold change /veh FAM167A (11723789_a_at) / RFU FAM26E (11764081_at) / Fold change /veh FAM26E (11764081_at) / RFU ISYNA1 (11749810_s_at) / Fold change /veh ISYNA1 (11749810_s_at) / RFU ACY1 (11761880_at) / Fold change /veh ACY1 (11761880_at) / RFU 11764098_at / Fold change /veh 11764098_at / RFU SAMD14 (11745864_x_at) / Fold change /veh SAMD14 (11745864_x_at) / RFU NPB (11741838_a_at) / Fold change /veh NPB (11741838_a_at) / RFU TMPRSS6 (11731388_a_at) / Fold change /veh TMPRSS6 (11731388_a_at) / RFU KRTAP10-2 (11738614_at) / Fold change /veh KRTAP10-2 (11738614_at) / RFU ARHGAP8 /// PRR5-ARHGAP8 (11727945_x_at) / Fold change /veh ARHGAP8 /// PRR5-ARHGAP8 (11727945_x_at) / RFU KRTAP5-7 /// NADSYN1 (11734609_at) / Fold change /veh KRTAP5-7 /// NADSYN1 (11734609_at) / RFU RASL12 (11751679_a_at) / Fold change /veh RASL12 (11751679_a_at) / RFU CDKN2B (11736163_a_at) / Fold change /veh CDKN2B (11736163_a_at) / RFU PRF1 (11729649_at) / Fold change /veh PRF1 (11729649_at) / RFU, ZNF638 /// ZNF638-IT1 / Fold change vs veh, ZNF638 /// ZNF638-IT1 / RFU, PANK3 / Fold change vs veh, PANK3 / RFU, SH3YL1 / Fold change vs veh, SH3YL1 / RFU, ZEB2 / Fold change vs veh, ZEB2 / RFU, NRIP1 / Fold change vs veh, NRIP1 / RFU, PTTG1IP / Fold change vs veh, PTTG1IP / RFU, CAPN2 / Fold change vs veh, CAPN2 / RFU, MED14 / Fold change vs veh, MED14 / RFU, SNORA58 / Fold change vs veh, SNORA58 / RFU, C1orf63 / Fold change vs veh, C1orf63 / RFU, LRRFIP1 / Fold change vs veh, LRRFIP1 / RFU, NDUFAF7 / Fold change vs veh, NDUFAF7 / RFU, SLC12A2 / Fold change vs veh, SLC12A2 / RFU, IBTK / Fold change vs veh, IBTK / RFU, ESF1 / Fold change vs veh, ESF1 / Fold change vs veh, TMEM50B / RFU, TAOK1 / Fold change vs veh, TAOK1 / RFU, ACBD3 / Fold change vs veh, ACBD3 / RFU, TMA16 / Fold change vs veh, TMA16 / RFU, RWDD3 / Fold change vs veh, RWDD3 / RFU, BCAT1 / Fold change vs veh, BCAT1 / RFU, EDEM3 / Fold change vs veh, EDEM3 / RFU, TMEM33 / Fold change vs veh, TMEM33 / RFU, WDR75 / Fold change vs veh, WDR75 / RFU, AHCTF1 / Fold change vs veh, AHCTF1 / RFU, TFRC / Fold change vs veh, TFRC / RFU, ZDHHC17 / Fold change vs veh, ZDHHC17 / RFU, NOM1 / Fold change vs veh, NOM1 / RFU, ARL8B / Fold change vs veh, ARL8B / RFU, ZBTB11 / Fold change vs veh, ZBTB11 / RFU, TAMM41 / Fold change vs veh, TAMM41 / RFU, KIAA1704 /// LOC100996395 / Fold change vs veh, KIAA1704 /// LOC100996395 / RFU, ING1 / Fold change vs veh, ING1 / RFU, TRMT61B / Fold change vs veh, TRMT61B / RFU, FUBP3 / Fold change vs veh, FUBP3 / RFU, TP53 / Fold change vs veh, TP53 / RFU, TNKS2 / Fold change vs veh, TNKS2 / RFU, ZFP14 / Fold change vs veh, ZFP14 / RFU, ACTR2 / Fold change vs veh, ACTR2 / RFU, PPP3R1 / Fold change vs veh, PPP3R1 / RFU, PIK3R1 / Fold change vs veh, PIK3R1 / RFU, HNRNPA1 / Fold change vs veh, HNRNPA1 / RFU, RNF170 / Fold change vs veh, RNF170 / RFU, ZNF28 / Fold change vs veh, ZNF28 / RFU, RNGTT / Fold change vs veh, RNGTT / RFU, OGT / Fold change vs veh, OGT / RFU, BRD1 / Fold change vs veh, BRD1 / RFU, MARS / Fold change vs veh, MARS / RFU, ZNF655 / Fold change vs veh, ZNF655 / RFU, FAHD1 / Fold change vs veh, FAHD1 / RFU, BDP1 / Fold change vs veh, BDP1 / RFU, LRRCC1 / Fold change vs veh, LRRCC1 / RFU, ARID1A / Fold change vs veh, ARID1A / RFU, ZNF146 / Fold change vs veh, ZNF146 / RFU, ZNF330 / Fold change vs veh, ZNF330 / RFU, GPN3 / Fold change vs veh, GPN3 / RFU, C9orf123 / Fold change vs veh, C9orf123 / RFU, N4BP2L2 / Fold change vs veh, N4BP2L2 / RFU, ARFIP1 / Fold change vs veh, ARFIP1 / RFU, FAM179B / Fold change vs veh, FAM179B / RFU, BCL10 / Fold change vs veh, BCL10 / RFU, UHRF1BP1L / Fold change vs veh, UHRF1BP1L / RFU, BET1 / Fold change vs veh, BET1 / RFU, CNOT2 / Fold change vs veh, CNOT2 / RFU, ZNF268 / Fold change vs veh, ZNF268 / Fold change vs veh, ZNF507 / RFU, DGCR2 / Fold change vs veh, DGCR2 / RFU, WDSUB1 / Fold change vs veh, WDSUB1 / Fold change vs veh, HSP90B1 /// MIR3652 / RFU, ADSS / Fold change vs veh, ADSS / RFU, GK / Fold change vs veh, GK / RFU, ZNF148 / Fold change vs veh, ZNF148 / RFU, TAF9 / Fold change vs veh, TAF9 / RFU, SLC1A5 / Fold change vs veh, SLC1A5 / RFU, SLMO2 / Fold change vs veh, SLMO2 / RFU, ABCC4 / Fold change vs veh, ABCC4 / RFU, LOC101060439 /// RAP1B / Fold change vs veh, LOC101060439 /// RAP1B / RFU, RFX7 / Fold change vs veh, RFX7 / RFU, GTPBP10 / Fold change vs veh, GTPBP10 / RFU, CNEP1R1 / Fold change vs veh, CNEP1R1 / RFU, BIVM-ERCC5 /// ERCC5 / Fold change vs veh, BIVM-ERCC5 /// ERCC5 / RFU, ILF3 / Fold change vs veh, ILF3 / RFU 11762660_at / Fold change /veh 11762660_at / RFU VCAN (11757783_s_at) / Fold change /veh VCAN (11757783_s_at) / RFU DDX43 (11728927_at) / Fold change /veh DDX43 (11728927_at) / RFU KRT8 (11758188_x_at) / Fold change /veh KRT8 (11758188_x_at) / RFU NKD1 (11759106_at) / Fold change /veh NKD1 (11759106_at) / RFU SRD5A1 (11742802_a_at) / Fold change /veh SRD5A1 (11742802_a_at) / RFU TPSAB1 /// TPSB2 (11721975_s_at) / Fold change /veh TPSAB1 /// TPSB2 (11721975_s_at) / RFU GSTM3 (11746129_a_at) / Fold change /veh GSTM3 (11746129_a_at) / RFU IL23R (11737362_x_at) / Fold change /veh IL23R (11737362_x_at) / RFU TMEM51 (11727254_a_at) / Fold change /veh TMEM51 (11727254_a_at) / RFU PIWIL2 (11732686_x_at) / Fold change /veh PIWIL2 (11732686_x_at) / RFU ORM1 (11744905_x_at) / Fold change /veh ORM1 (11744905_x_at) / RFU CCDC152 (11743942_at) / Fold change /veh CCDC152 (11743942_at) / RFU ECM1 (11717891_a_at) / Fold change /veh ECM1 (11717891_a_at) / RFU IL23R (11748794_a_at) / Fold change /veh IL23R (11748794_a_at) / RFU TNFAIP8L3 (11732012_x_at) / Fold change /veh TNFAIP8L3 (11732012_x_at) / RFU MBOAT4 (11741988_at) / Fold change /veh MBOAT4 (11741988_at) / RFU 11764193_at / Fold change /veh 11764193_at / RFU TMEM53 (11763286_at) / Fold change /veh TMEM53 (11763286_at) / RFU MAGEB2 (11727129_at) / Fold change /veh MAGEB2 (11727129_at) / RFU TMEM200A (11744735_a_at) / Fold change /veh TMEM200A (11744735_a_at) / RFU CCDC152 (11751479_a_at) / Fold change /veh CCDC152 (11751479_a_at) / RFU FAM211A (11726209_a_at) / Fold change /veh FAM211A (11726209_a_at) / RFU RGS16 (11746705_a_at) / Fold change /veh RGS16 (11746705_a_at) / RFU VCAN (11755009_s_at) / Fold change /veh VCAN (11755009_s_at) / RFU RHOB (11743442_s_at) / Fold change /veh RHOB (11743442_s_at) / RFU RGS16 (11720943_a_at) / Fold change /veh RGS16 (11720943_a_at) / RFU RGS16 (11720944_at) / Fold change /veh RGS16 (11720944_at) / RFU, VPS4B / Fold change vs veh, VPS4B / RFU, CREB1 / Fold change vs veh, CREB1 / RFU, DNAJC13 / Fold change vs veh, DNAJC13 / RFU, GNAQ / Fold change vs veh, GNAQ / RFU, CDK5R1 / Fold change vs veh, CDK5R1 / RFU, ZRANB3 / Fold change vs veh, ZRANB3 / RFU, CUL4A / Fold change vs veh, CUL4A / RFU, CCNY / Fold change vs veh, CCNY / RFU, UFL1 / Fold change vs veh, UFL1 / RFU, COG3 / Fold change vs veh, COG3 / RFU, DIAPH2 / Fold change vs veh, DIAPH2 / RFU, SKA2 / Fold change vs veh, SKA2 / RFU, AFF3 / Fold change vs veh, AFF3 / RFU, LMF1 / Fold change vs veh, LMF1 / RFU, IPO11 / Fold change vs veh, IPO11 / RFU, DFFB / Fold change vs veh, DFFB / RFU, FOXP1 / Fold change vs veh, FOXP1 / RFU, CARD8 / Fold change vs veh, CARD8 / RFU, STRN3 / Fold change vs veh, STRN3 / RFU, ADK / Fold change vs veh, ADK / RFU, RASSF2 / Fold change vs veh, RASSF2 / RFU, WIPF1 / Fold change vs veh, WIPF1 / RFU, LARP1B / Fold change vs veh, LARP1B / RFU, RASA1 / Fold change vs veh, RASA1 / RFU, RB1 / Fold change vs veh, RB1 / RFU, PPFIA1 / Fold change vs veh, PPFIA1 / RFU, MAT2A / Fold change vs veh, MAT2A / RFU, CCT5 / Fold change vs veh, CCT5 / RFU, WDR92 / Fold change vs veh, WDR92 / RFU, CUX1 / Fold change vs veh, CUX1 / RFU, TTC7A / Fold change vs veh, TTC7A / RFU, TMEM135 / Fold change vs veh, TMEM135 / RFU, DEPTOR / Fold change vs veh, DEPTOR / RFU, CPM / Fold change vs veh, CPM / RFU, DNAJB6 / Fold change vs veh, DNAJB6 / RFU, CACNA2D3 / Fold change vs veh, CACNA2D3 / RFU, DTX4 / Fold change vs veh, DTX4 / RFU, TFCP2 / Fold change vs veh, TFCP2 / RFU, GMCL1 /// GMCL1P1 / Fold change vs veh, GMCL1 /// GMCL1P1 / RFU, AEBP2 / Fold change vs veh, AEBP2 / RFU, SNHG1 /// SNORD22 /// SNORD25 /// SNORD26 /// SNORD27 /// SNORD28 /// SNORD29 /// SNORD31 / Fold change vs veh, SNHG1 /// SNORD22 /// SNORD25 /// SNORD26 /// SNORD27 /// SNORD28 /// SNORD29 /// SNORD31 / Fold change (Aza/veh), C12orf56 (ProbeSet 11735607_a_at) / Fold change (ACY-1035/veh), C12orf56 (ProbeSet 11735607_a_at) / Fold change (Aza/veh), FGFR1OP (ProbeSet 11751329_s_at) / Fold change (ACY-1035/veh), FGFR1OP (ProbeSet 11751329_s_at) / Fold change (Aza/veh), VPS36 (ProbeSet 11739960_a_at) / Fold change (ACY-1035/veh), VPS36 (ProbeSet 11739960_a_at) / RFU SYPL1 (11715823_x_at) / Fold change /veh SYPL1 (11715823_x_at) / RFU IGFBP7 (11715501_s_at) / Fold change /veh IGFBP7 (11715501_s_at) / RFU REEP3 (11722064_at) / Fold change /veh REEP3 (11722064_at) / RFU IGLL1 (11728026_x_at) / Fold change /veh IGLL1 (11728026_x_at): dose or concentration left out as unconfirmed
Settings: MV-4-11 cells, 48 hours

Nc1ncn([C@@H]2O[C@H](CO)[C@@H](O)[C@H]2O)c(=O)n1 [azacitidine]
Fold change /veh MBOAT4 (11741988_at): 1.51
